Data reported in patent US20220249343A1, “COSMETIC COMPOSITION INCLUDING 5-BENZYLAMINOSALICYLIC ACID DERIVATIVE, AND TOPICAL USE THEREOF” (GNT PHARMA CO., LTD., priority 2019, published 2022).

Test system: human skin
Experiment: Safety assessment for human skin: patch test
Assay type: in vivo
Conditions: human volunteers
Protocol: Safety of Compound 2 was assessed by a patch test of 33 human volunteers. At this time, a patch treated with a composition containing 0.0544 mg/ml of compound 2 was attached to the test site, after 24 hours, the patch was removed and the location was marked. After 1 hour, a degree of reactivity was determined and recorded.
The skin reactivity was calculated by multiplying the average of evaluated values for 33 subjects by 25, while the skin irritation index was determined by dividing the above calculated value by the number of evaluations.
The degree of skin irritation of the test substance was determined with reference to the skin irritation index table (Table 1).

Compound: O=C(O)c1cc(NCCc2ccc(C(F)(F)F)cc2)ccc1O [Compound 2]
- adverse skin reactions during the period of use: no reports of specific adverse skin reactions
- findings on physical examination by a dermatologist: no abnormal findings were observed
